Measured values reported in ChEMBL document CHEMBL5291721, “A preclinical secondary pharmacology resource illuminates target-adverse drug reaction associations of marketed drugs” (Nat Commun, 2023).

How the values were obtained:
[1] = target: T1, Prostaglandin G/H synthase 1 (Homo sapiens, UniProt P23219); assay type: functional
[2] = target: T2, Amine oxidase [flavin-containing] A (Homo sapiens, UniProt P21397); assay type: functional
T2 sequence (P21397 whole entry): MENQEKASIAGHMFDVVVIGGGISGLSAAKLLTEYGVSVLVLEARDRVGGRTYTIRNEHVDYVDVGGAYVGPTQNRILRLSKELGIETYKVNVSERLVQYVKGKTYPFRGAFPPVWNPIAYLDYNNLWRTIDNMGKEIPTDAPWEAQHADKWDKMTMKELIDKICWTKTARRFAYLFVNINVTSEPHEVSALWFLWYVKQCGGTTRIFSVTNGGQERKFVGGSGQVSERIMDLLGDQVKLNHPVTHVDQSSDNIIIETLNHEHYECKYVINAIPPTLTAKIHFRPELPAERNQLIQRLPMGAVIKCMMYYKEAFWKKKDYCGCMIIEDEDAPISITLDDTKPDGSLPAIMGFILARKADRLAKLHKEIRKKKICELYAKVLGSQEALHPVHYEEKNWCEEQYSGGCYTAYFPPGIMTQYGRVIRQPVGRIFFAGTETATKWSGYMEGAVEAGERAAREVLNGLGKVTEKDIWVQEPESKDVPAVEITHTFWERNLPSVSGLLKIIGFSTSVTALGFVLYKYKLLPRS

[3] = target: Sodium-dependent dopamine transporter (Homo sapiens, UniProt Q01959)
Acetylcholinesterase = Acetylcholinesterase (Homo sapiens, UniProt P22303); assay type: functional
[4] = target: 3',5'-cyclic-AMP phosphodiesterase 4A (Homo sapiens, UniProt P27815); assay type: functional
Thromboxane A2 receptor = target: T3, Thromboxane A2 receptor (Homo sapiens, UniProt P21731); assay type: functional, cell-based
T3 sequence (P21731 whole entry): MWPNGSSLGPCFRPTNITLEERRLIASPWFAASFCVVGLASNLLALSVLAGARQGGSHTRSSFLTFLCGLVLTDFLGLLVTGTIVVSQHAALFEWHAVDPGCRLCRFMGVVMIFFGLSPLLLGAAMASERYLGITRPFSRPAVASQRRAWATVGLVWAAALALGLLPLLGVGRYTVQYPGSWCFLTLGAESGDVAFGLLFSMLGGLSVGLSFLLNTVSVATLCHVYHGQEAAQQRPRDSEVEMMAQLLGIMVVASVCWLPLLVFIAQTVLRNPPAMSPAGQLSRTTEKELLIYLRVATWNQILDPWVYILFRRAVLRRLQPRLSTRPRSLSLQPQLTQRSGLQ

[5] = target: cGMP-inhibited 3',5'-cyclic phosphodiesterase 3A (Homo sapiens, UniProt Q14432); assay type: functional
[6] = target: Voltage-gated inwardly rectifying potassium channel KCNH2 (Homo sapiens, UniProt Q12809); assay type: functional
[7] = target: T4, Alpha-1A adrenergic receptor (Homo sapiens, UniProt P35348); assay type: functional, cell-based
T4 sequence (P35348 whole entry): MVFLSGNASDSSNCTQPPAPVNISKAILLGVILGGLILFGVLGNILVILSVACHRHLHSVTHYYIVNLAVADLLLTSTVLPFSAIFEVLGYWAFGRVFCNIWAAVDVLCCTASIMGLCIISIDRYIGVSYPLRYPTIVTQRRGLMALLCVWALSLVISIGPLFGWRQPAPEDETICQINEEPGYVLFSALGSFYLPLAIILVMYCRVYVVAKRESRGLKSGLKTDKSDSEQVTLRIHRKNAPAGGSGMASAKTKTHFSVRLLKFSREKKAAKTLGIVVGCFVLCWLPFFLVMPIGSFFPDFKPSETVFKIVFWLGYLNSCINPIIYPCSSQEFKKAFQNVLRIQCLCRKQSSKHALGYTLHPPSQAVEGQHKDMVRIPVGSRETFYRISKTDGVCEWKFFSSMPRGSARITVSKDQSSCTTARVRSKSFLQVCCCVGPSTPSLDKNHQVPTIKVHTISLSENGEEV

[8] = target: T1, Prostaglandin G/H synthase 1; assay type: functional; remark: listed apart in the source
D(1A) dopamine receptor = D(1A) dopamine receptor (Homo sapiens, UniProt P21728)
Prothrombin = Prothrombin (Homo sapiens, UniProt P00734); assay type: functional
Progesterone receptor = target: T5, Progesterone receptor (Homo sapiens, UniProt P06401)
T5 sequence (P06401 whole entry): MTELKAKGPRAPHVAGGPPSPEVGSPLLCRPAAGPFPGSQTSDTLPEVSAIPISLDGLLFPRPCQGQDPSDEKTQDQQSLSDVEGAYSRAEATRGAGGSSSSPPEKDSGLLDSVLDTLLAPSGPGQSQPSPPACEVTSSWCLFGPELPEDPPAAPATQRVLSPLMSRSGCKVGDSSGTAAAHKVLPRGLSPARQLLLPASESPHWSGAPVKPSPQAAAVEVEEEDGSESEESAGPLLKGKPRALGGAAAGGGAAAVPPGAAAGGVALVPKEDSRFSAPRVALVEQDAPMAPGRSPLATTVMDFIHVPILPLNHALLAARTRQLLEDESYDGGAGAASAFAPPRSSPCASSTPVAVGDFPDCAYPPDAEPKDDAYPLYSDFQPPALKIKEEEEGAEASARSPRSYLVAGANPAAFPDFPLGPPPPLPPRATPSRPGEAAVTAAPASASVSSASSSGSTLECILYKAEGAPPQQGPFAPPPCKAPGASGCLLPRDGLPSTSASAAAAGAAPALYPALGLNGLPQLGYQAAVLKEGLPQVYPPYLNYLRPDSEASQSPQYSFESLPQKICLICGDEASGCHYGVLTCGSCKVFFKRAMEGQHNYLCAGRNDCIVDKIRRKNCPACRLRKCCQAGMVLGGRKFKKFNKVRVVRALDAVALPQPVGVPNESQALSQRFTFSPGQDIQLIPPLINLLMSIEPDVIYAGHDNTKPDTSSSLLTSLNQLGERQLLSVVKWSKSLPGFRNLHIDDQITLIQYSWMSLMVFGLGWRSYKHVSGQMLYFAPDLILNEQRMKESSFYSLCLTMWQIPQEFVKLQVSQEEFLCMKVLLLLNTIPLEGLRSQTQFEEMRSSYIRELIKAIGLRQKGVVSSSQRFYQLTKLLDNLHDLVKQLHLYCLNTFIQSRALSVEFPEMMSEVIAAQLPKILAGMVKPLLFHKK

Mu-type opioid receptor = Mu-type opioid receptor (Homo sapiens, UniProt P35372)
D(3) dopamine receptor = D(3) dopamine receptor (Homo sapiens, UniProt P35462)
Further: assay procedure not described here.

Sequence of 3',5'-cyclic-AMP phosphodiesterase 4A (P27815 whole entry): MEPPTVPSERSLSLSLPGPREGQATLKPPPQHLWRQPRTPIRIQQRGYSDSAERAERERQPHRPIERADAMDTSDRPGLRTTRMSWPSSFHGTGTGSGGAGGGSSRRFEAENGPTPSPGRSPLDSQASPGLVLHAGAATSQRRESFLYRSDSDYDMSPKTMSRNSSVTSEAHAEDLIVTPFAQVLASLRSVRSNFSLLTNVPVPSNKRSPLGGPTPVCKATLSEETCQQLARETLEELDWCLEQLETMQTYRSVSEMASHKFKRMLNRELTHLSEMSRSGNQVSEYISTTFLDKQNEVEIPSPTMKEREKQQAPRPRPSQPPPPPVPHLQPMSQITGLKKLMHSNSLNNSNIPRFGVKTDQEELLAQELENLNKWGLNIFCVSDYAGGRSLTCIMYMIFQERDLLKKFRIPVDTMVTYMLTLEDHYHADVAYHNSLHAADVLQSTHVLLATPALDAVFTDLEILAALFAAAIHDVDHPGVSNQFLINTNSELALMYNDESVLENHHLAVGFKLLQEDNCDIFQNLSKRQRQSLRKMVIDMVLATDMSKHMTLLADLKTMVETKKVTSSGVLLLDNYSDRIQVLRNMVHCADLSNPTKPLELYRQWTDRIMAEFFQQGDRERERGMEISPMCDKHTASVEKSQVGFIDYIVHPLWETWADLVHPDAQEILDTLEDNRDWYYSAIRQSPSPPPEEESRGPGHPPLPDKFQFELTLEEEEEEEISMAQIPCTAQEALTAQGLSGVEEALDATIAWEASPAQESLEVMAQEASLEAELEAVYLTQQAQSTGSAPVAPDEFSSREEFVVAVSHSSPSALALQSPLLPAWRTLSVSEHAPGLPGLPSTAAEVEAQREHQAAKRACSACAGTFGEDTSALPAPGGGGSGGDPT
Sequence of Acetylcholinesterase (P22303 whole entry): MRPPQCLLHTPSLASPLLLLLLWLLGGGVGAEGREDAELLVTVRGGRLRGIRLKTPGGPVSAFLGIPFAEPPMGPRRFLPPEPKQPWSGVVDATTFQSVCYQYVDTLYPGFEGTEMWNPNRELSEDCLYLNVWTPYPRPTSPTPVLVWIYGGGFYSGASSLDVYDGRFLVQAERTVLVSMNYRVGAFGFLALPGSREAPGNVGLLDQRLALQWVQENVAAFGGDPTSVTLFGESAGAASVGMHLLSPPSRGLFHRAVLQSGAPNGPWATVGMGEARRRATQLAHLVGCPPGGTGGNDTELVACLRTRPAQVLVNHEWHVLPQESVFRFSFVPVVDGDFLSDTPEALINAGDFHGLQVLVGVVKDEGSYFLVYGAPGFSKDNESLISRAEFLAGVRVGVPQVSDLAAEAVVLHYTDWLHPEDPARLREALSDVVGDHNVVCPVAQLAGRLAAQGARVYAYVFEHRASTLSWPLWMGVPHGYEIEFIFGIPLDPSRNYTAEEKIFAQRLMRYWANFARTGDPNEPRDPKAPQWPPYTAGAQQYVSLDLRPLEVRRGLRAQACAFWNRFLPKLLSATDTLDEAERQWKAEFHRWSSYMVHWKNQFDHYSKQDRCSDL
Sequence of D(1A) dopamine receptor (P21728 whole entry): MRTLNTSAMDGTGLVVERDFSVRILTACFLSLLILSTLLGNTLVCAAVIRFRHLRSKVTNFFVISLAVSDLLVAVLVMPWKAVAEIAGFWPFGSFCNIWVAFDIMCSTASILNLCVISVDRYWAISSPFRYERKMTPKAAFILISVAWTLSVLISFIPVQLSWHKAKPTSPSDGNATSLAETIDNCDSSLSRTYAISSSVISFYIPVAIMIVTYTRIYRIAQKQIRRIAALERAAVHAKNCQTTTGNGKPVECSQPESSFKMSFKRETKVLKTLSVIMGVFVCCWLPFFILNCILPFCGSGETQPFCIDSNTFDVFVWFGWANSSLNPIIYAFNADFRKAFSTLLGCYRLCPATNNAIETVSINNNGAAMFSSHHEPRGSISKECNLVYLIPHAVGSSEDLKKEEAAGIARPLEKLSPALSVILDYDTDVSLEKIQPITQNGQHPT
Sequence of Voltage-gated inwardly rectifying potassium channel KCNH2 (Q12809 whole entry): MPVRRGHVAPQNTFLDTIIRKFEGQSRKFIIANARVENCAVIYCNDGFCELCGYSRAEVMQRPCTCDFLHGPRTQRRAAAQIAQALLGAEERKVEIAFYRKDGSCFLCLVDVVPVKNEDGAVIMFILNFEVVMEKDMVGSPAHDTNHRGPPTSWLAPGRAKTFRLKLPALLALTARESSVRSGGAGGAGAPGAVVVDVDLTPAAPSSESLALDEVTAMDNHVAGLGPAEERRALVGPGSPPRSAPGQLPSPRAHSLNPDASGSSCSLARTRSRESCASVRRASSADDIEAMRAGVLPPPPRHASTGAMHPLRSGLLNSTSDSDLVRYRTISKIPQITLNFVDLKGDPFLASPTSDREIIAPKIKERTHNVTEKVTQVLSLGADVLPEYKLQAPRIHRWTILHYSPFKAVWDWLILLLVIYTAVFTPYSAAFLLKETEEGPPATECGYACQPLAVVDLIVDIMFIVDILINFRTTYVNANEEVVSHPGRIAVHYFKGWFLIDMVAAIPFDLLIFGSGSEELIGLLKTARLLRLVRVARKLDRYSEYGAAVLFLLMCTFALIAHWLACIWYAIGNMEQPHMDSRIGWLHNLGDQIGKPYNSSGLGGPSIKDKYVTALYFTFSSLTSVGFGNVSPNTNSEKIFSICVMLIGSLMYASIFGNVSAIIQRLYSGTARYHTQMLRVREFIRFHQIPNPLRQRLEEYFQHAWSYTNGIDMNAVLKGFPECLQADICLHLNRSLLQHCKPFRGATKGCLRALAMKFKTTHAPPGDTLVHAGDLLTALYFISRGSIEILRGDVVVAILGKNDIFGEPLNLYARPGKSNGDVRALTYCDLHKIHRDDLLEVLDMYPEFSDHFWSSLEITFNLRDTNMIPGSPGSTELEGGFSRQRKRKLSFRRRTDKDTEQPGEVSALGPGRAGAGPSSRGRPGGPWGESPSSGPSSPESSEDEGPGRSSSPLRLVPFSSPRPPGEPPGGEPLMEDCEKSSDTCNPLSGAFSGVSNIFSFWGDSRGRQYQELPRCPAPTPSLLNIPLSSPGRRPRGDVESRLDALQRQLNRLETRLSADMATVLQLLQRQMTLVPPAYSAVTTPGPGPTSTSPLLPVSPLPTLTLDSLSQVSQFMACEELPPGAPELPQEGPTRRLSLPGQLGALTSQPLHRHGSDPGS
Sequence of Mu-type opioid receptor (P35372 whole entry): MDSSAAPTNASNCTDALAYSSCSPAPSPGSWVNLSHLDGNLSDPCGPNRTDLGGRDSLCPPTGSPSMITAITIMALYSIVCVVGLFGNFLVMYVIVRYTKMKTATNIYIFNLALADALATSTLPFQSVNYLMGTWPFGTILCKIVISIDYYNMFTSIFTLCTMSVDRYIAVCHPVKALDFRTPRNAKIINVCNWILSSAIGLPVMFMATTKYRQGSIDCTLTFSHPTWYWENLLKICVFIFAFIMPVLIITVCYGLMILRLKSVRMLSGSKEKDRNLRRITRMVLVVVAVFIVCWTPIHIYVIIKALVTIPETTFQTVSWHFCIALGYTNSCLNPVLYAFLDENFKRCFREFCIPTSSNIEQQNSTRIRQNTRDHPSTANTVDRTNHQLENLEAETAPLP
Sequence of cGMP-inhibited 3',5'-cyclic phosphodiesterase 3A (Q14432 whole entry): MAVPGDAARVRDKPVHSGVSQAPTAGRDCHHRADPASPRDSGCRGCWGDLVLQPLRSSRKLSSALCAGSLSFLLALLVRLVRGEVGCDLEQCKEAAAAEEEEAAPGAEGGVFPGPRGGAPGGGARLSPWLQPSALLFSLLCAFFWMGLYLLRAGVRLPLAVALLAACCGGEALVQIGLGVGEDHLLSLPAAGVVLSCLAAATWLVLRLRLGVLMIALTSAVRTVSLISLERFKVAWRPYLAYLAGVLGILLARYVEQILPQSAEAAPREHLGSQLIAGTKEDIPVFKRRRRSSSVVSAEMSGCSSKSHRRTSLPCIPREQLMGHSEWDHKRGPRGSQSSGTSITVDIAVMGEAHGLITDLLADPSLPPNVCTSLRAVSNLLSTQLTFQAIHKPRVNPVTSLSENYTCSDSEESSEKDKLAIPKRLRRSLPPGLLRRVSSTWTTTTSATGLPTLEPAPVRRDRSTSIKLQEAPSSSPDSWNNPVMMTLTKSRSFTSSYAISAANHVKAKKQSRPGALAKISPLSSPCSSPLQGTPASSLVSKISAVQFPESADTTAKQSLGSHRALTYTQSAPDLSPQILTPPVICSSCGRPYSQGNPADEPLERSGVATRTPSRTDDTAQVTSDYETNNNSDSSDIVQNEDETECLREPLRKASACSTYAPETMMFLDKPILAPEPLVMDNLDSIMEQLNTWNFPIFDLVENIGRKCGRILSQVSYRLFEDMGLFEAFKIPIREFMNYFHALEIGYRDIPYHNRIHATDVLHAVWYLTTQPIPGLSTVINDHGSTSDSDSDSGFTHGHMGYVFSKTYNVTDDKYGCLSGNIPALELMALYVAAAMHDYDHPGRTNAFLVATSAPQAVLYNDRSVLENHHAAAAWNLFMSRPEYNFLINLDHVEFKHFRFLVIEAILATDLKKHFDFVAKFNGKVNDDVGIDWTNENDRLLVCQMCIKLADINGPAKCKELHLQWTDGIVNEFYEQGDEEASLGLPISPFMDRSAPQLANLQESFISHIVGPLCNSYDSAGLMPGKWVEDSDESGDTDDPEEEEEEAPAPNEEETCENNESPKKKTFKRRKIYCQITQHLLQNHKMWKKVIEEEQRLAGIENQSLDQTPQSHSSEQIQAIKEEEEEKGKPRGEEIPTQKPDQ
Sequence of D(3) dopamine receptor (P35462 whole entry): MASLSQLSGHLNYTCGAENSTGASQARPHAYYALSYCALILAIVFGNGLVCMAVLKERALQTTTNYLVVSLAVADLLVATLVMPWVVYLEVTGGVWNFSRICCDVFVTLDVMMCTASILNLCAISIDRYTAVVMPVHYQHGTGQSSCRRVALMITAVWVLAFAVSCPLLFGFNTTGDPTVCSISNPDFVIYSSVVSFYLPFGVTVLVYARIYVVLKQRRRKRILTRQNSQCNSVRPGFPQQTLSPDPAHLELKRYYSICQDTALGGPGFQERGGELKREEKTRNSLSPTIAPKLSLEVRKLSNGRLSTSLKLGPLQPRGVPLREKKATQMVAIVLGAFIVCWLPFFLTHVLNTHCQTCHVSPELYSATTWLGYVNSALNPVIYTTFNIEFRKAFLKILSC

Compound | AC50 [1] [µM] | AC50 [2] [µM] | AC50 [3] [µM] | AC50 (Acetylcholinesterase) [µM] | AC50 [4] [µM] | AC50 (Thromboxane A2 receptor) [µM] | AC50 [5] [µM] | AC50 [6] [µM] | AC50 [7] [µM] | AC50 [8] [µM] | AC50 (D(1A) dopamine receptor) [µM] | AC50 (Prothrombin) [µM] | AC50 (Progesterone receptor) [µM] | AC50 (Mu-type opioid receptor) [µM] | AC50 (D(3) dopamine receptor) [µM]
CCCc1nc2c(C)cc(-c3nc4ccccc4n3C)cc2n1Cc1ccc(-c2ccccc2C(=O)O)cc1 | > 30 | > 30 | > 30 | > 30 | 13.5 | 14.5 | 29.9 | > 30 | 9.55 | > 30 | > 30 | > 30 | > 30 | 2.56 | > 30
CC[C@@H]1C[C@]1(NC(=O)[C@@H]1C[C@@H]2CN1C(=O)[C@H](C(C)(C)C)NC(=O)OCC(C)(C)CCCCc1cccc3c1CN(C3)C(=O)O2)C(=O)NS(=O)(=O)C1CC1 | 26.8 | > 30 | > 30 | > 30 | > 30 | 29.5 | > 30 | > 30 | 29.7 | > 30 | > 30 | > 30 | > 30 | > 30 | > 30
CC(=O)NO [ACETOHYDROXAMIC ACID] | 21.5 | > 30 | > 30 | > 30 | > 30 | > 30 | > 30 |  | > 30 | > 30 | > 30 | > 30 | > 30 | > 30 | > 30
CC(=O)NCCCCCC(=O)O [ACEXAMIC ACID] | > 30 | > 30 | > 30 | > 30 | > 30 | > 30 | > 30 | > 30 | 18.9 | > 30 | > 30 | > 30 | > 30 | > 30 | > 30
C[C@H]1CN(C[C@H](Cc2ccccc2)C(=O)NCC(=O)O)CC[C@@]1(C)c1cccc(O)c1 [ALVIMOPAN] | > 30 | > 30 | > 30 | > 30 | > 30 | > 30 | > 30 | > 30 | > 30 | > 3 | > 30 | > 30 | > 30 |  | > 30
O=C(O)c1ccccc1 [BENZOIC ACID] | > 30 | > 30 | > 30 | > 30 | > 30 | > 30 | > 30 |  | > 30 | > 30 | > 30 | > 30 | > 30 | > 30 | > 30
CCCCc1oc2ccc(NS(C)(=O)=O)cc2c1C(=O)c1ccc(OCCCN(CCCC)CCCC)cc1 [DRONEDARONE] | > 30 | > 30 | 1.73 | > 30 | 16.8 | > 30 | > 30 |  | > 30 | > 30 | 5.4 | > 30 | 0.64 | 3.09 | 0.642
CC(C)C(=O)Oc1ccc(CO)cc1[C@H](CCN(C(C)C)C(C)C)c1ccccc1 [FESOTERODINE] | > 30 | > 30 | > 30 | > 30 | > 30 | > 30 | > 30 |  | > 30 | > 30 | > 30 | > 30 | > 30 | > 30 | > 30
C[N+](C)(CCCCCC[N+](C)(C)C1c2ccccc2-c2ccccc21)C1c2ccccc2-c2ccccc21 [HEXAFLUORENIUM] | > 30 | > 30 | 4.5 | 0.171 | > 30 | > 30 | > 30 |  | > 30 | > 30 | 19.3 | > 30 | > 30 | 1.03 | 0.0671
C[N+](C)(C)CCOC(=O)CCC(=O)OCC[N+](C)(C)C [SUXAMETHONIUM] | > 30 | > 30 | > 30 | > 30 | > 30 | > 30 | > 30 |  | 0.667 | > 30 | > 30 | > 30 | > 30 | > 30 | > 30
CCC1=C[C@@H]2CN(C1)Cc1c([nH]c3ccccc13)[C@@](C(=O)OC)(c1cc3c(cc1OC)N(C)[C@H]1[C@@](O)(C(=O)OC)[C@H](OC(C)=O)[C@]4(CC)C=CCN5CC[C@]31[C@@H]54)C2 [VINORELBINE] | > 30 | > 30 | > 30 | > 30 | > 30 | > 30 | > 30 | 5.5 | > 30 |  | > 30 | > 30 | > 30 | 6.76 | > 30
O=C1Cc2cc(CCN3CCN(c4nsc5ccccc45)CC3)c(Cl)cc2N1 [ZIPRASIDONE] | > 30 | > 30 | 0.0875 | > 30 | > 30 | > 30 | > 30 |  | > 30 | > 30 |  | > 30 | > 30 | 5.06 | 
